Laboratory results as given in ChEMBL document CHEMBL5724914, “Linking interpersonal differences in gut microbiota composition and drug biotransformation activity” (2024).

Tests used:
[1] = human gut metagenome, 24 h, 2 µM
[2] = human gut metagenome, 24 h, 2 µM; remark: listed apart in the source
[3] = The drug is tested on Z-012 corresponding to metagenome with ENA study accession number: PRJEB37062 and ENA sample accession number: ERS12561812 for biotransformation under anaerobic condition. The drug concentrations were measured over 9 timepoints collected between 0 and 24 hours of incubation by liquid-chromatography-coupled mass spectrometry (LC–MS); details: 2 µM
[4] = The drug is tested on Z-019 corresponding to rat gut metagenome with ENA study accession number: PRJEB37062 and ENA sample accession number: ERS12561818 for biotransformation under anaerobic condition. The drug concentrations were measured over 9 timepoints collected between 0 and 24 hours of incubation by liquid-chromatography-coupled mass spectrometry (LC–MS); details: 2 µM
[5] = human gut metagenome, 24 h, 2 µM; remark: listed apart in the source
[6] = The drug is tested on Z-021 corresponding to metagenome with ENA study accession number: PRJEB37062 and ENA sample accession number: ERS12561820 for biotransformation under anaerobic condition. The drug concentrations were measured over 9 timepoints collected between 0 and 24 hours of incubation by liquid-chromatography-coupled mass spectrometry (LC–MS); details: 2 µM
[7] = human gut metagenome, 24 h, 2 µM; remark: listed apart in the source
[8] = human gut metagenome, 24 h, 2 µM; remark: listed apart in the source
[9] = The drug is tested on Z-023 corresponding to metagenome with ENA study accession number: PRJEB37062 and ENA sample accession number: ERS12561822 for biotransformation under anaerobic condition. The drug concentrations were measured over 9 timepoints collected between 0 and 24 hours of incubation by liquid-chromatography-coupled mass spectrometry (LC–MS); details: 2 µM
[10] = human gut metagenome, 24 h, 2 µM; remark: listed apart in the source
[11] = human gut metagenome, 24 h, 2 µM; remark: listed apart in the source
[12] = human gut metagenome, 24 h, 2 µM; remark: listed apart in the source
[13] = The drug is tested on Z-002 corresponding to rabbit gut metagenome with ENA study accession number: PRJEB37062 and ENA sample accession number: ERS12561802 for biotransformation under anaerobic condition. The drug concentrations were measured over 9 timepoints collected between 0 and 24 hours of incubation by liquid-chromatography-coupled mass spectrometry (LC–MS); details: 2 µM
[14] = The drug is tested on Z-005 corresponding to metagenome with ENA study accession number: PRJEB37062 and ENA sample accession number: ERS12561805 for biotransformation under anaerobic condition. The drug concentrations were measured over 9 timepoints collected between 0 and 24 hours of incubation by liquid-chromatography-coupled mass spectrometry (LC–MS); details: 2 µM
[15] = human gut metagenome, 24 h, 2 µM; remark: listed apart in the source
[16] = human gut metagenome, 24 h, 2 µM; remark: listed apart in the source
[17] = human gut metagenome, 24 h, 2 µM; remark: listed apart in the source
[18] = human gut metagenome, 24 h, 2 µM; remark: listed apart in the source
[19] = The drug is tested on Z-020 corresponding to rabbit gut metagenome with ENA study accession number: PRJEB37062 and ENA sample accession number: ERS12561819 for biotransformation under anaerobic condition. The drug concentrations were measured over 9 timepoints collected between 0 and 24 hours of incubation by liquid-chromatography-coupled mass spectrometry (LC–MS); details: 2 µM
[20] = The drug is tested on Z-006 corresponding to mouse gut metagenome with ENA study accession number: PRJEB37062 and ENA sample accession number: ERS12561806 for biotransformation under anaerobic condition. The drug concentrations were measured over 9 timepoints collected between 0 and 24 hours of incubation by liquid-chromatography-coupled mass spectrometry (LC–MS); details: 2 µM
Further: call rule not given here.

SMILES | Bacterial Biotransformation [1] | Bacterial Biotransformation [2] | Bacterial Biotransformation [3] | Bacterial Biotransformation [4] | Bacterial Biotransformation [5] | Bacterial Biotransformation [6] | Bacterial Biotransformation [7] | Bacterial Biotransformation [8] | Bacterial Biotransformation [9] | Bacterial Biotransformation [10] | Bacterial Biotransformation [11] | Bacterial Biotransformation [12] | Bacterial Biotransformation [13] | Bacterial Biotransformation [14] | Bacterial Biotransformation [15] | Bacterial Biotransformation [16] | Bacterial Biotransformation [17] | Bacterial Biotransformation [18] | Bacterial Biotransformation [19] | Bacterial Biotransformation [20]
CC(O)(CS(=O)(=O)c1ccc(F)cc1)C(=O)Nc1ccc(C#N)c(C(F)(F)F)c1 (stereo not given) [BICALUTAMIDE] | Compound NOT metabolized | Compound NOT metabolized | Compound NOT metabolized | Compound NOT metabolized | Compound NOT metabolized | Compound NOT metabolized | Compound NOT metabolized | Compound NOT metabolized | Compound NOT metabolized | Compound NOT metabolized | Compound NOT metabolized | Compound NOT metabolized | Compound NOT metabolized | Compound NOT metabolized | Compound NOT metabolized | Compound NOT metabolized | Compound NOT metabolized | Compound NOT metabolized | Compound NOT metabolized | Compound NOT metabolized
CCCC1O[C@@H]2C[C@H]3[C@@H]4CCC5=CC(=O)C=C[C@]5(C)[C@H]4[C@@H](O)C[C@]3(C)[C@]2(C(=O)CO)O1 (stereo not given in full) [BUDESONIDE] | Compound metabolized | Compound metabolized | Compound metabolized | Compound NOT metabolized | Compound metabolized | Compound metabolized | Compound metabolized | Compound metabolized | Compound NOT metabolized | Compound metabolized | Compound metabolized | Compound metabolized | Compound metabolized | Compound metabolized | Compound metabolized | Compound metabolized | Compound metabolized | Compound metabolized | Compound NOT metabolized | Compound NOT metabolized
CCN(CC)CCOCCOC(=O)C1(c2ccccc2)CCCC1.O=C(O)CC(O)(CC(=O)O)C(=O)O [CARBETAPENTANE CITRATE] | Compound metabolized | Compound metabolized | Compound NOT metabolized | Compound NOT metabolized | Compound metabolized | Compound metabolized | Compound NOT metabolized | Compound metabolized | Compound NOT metabolized | Compound metabolized | Compound metabolized | Compound metabolized | Compound metabolized | Compound metabolized | Compound metabolized | Compound metabolized | Compound metabolized | Compound metabolized | Compound metabolized | Compound NOT metabolized
O=C(O)COCCN1CCN(C(c2ccccc2)c2ccc(Cl)cc2)CC1 (stereo not given) [CETIRIZINE] | Compound metabolized | Compound metabolized | Compound metabolized | Compound NOT metabolized | Compound metabolized | Compound metabolized | Compound metabolized | Compound metabolized | Compound metabolized | Compound metabolized | Compound metabolized | Compound metabolized | Compound metabolized | Compound metabolized | Compound metabolized | Compound metabolized | Compound metabolized | Compound metabolized | Compound NOT metabolized | Compound NOT metabolized
CN/C(=N/CCSCc1nc[nH]c1C)NC#N [CIMETIDINE] | Compound metabolized | Compound metabolized | Compound metabolized | Compound NOT metabolized | Compound NOT metabolized | Compound NOT metabolized | Compound NOT metabolized | Compound metabolized | Compound NOT metabolized | Compound metabolized | Compound metabolized | Compound NOT metabolized | Compound NOT metabolized | Compound metabolized | Compound metabolized | Compound NOT metabolized | Compound NOT metabolized | Compound metabolized | Compound NOT metabolized | Compound NOT metabolized
Br.CN(C)CCCC1(c2ccc(F)cc2)OCc2cc(C#N)ccc21 (stereo not given) [CITALOPRAM HYDROBROMIDE] | Compound metabolized | Compound metabolized | Compound NOT metabolized | Compound NOT metabolized | Compound metabolized | Compound NOT metabolized | Compound NOT metabolized | Compound metabolized | Compound NOT metabolized | Compound NOT metabolized | Compound metabolized | Compound NOT metabolized | Compound metabolized | Compound NOT metabolized | Compound NOT metabolized | Compound metabolized | Compound metabolized | Compound metabolized | Compound NOT metabolized | Compound NOT metabolized
